Laboratory results taken from patent publication US20230085307A1, “PYRIDAZINONE COMPOUND AND HERBICIDE” (NISSAN CHEMICAL CORPORATION, priority 2019, published 2023).

Columns and labels:
[1] = system: barnyard grass; test: Test Example 5: herbicidal effect by foliage application, plastic box (Table 20, symbol H); assay type: in vivo, barnyard grass (Echinochloa crus-galli); details: amount of applied herbicide 272 g/ha; foliage application after 14-day growth; evaluated three weeks after application
Summary of the method: (§1)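 Plants were sown into sterilized diluvial soil under about 1.5 cm cover and kept in a greenhouse at 25° C. to 30° C. Fourteen days on, foliage received an even spray of the diluted emulsion. Herbicidal or crop effect was judged three weeks afterwards.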

[2] = system: Italian ryegrass; test: Test Example 4: herbicidal effect by soil treatment (Table 19, symbol K); assay type: in vivo, Italian ryegrass (Lolium multiflorum); details: amount of applied herbicide 272 g/ha
Summary of the method: (§2)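 Pre-emergence style soil spray: seeds under ~1.5 cm sterilized diluvial soil received a uniform coat of emulsion diluted to the predetermined herbicide amount. Greenhouse 25–30° C; readout at week three on previously defined criteria.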

[3] = system: blackgrass; test: Test Example 5: herbicidal effect by foliage application, plastic box (Table 20, symbol J); assay type: in vivo, blackgrass (Alopecurus myosuroides); details: amount of applied herbicide 272 g/ha; foliage application after 14-day growth; evaluated three weeks after application
Summary of the method: as §1

[4] = system: wild oat; test: Test Example 4: herbicidal effect by soil treatment (Table 19, symbol I); assay type: in vivo, wild oat (Avena fatua); details: amount of applied herbicide 272 g/ha
Summary of the method: as §2

[5] = system: blackgrass; test: Test Example 4: herbicidal effect by soil treatment (Table 19, symbol J); assay type: in vivo, blackgrass (Alopecurus myosuroides); details: amount of applied herbicide 272 g/ha
Summary of the method: as §2

[6] = system: southern crabgrass; test: Test Example 5: herbicidal effect by foliage application, plastic box (Table 20, symbol F); assay type: in vivo, southern crabgrass (Digitaria ciliaris); details: amount of applied herbicide 272 g/ha; foliage application after 14-day growth; evaluated three weeks after application
Summary of the method: as §1

[7] = system: barnyard grass; test: Test Example 4: herbicidal effect by soil treatment (Table 19, symbol H); assay type: in vivo, barnyard grass (Echinochloa crus-galli); details: amount of applied herbicide 272 g/ha
Summary of the method: as §2

[8] = system: Chinese sprangletop; test: Test Example 3: herbicidal effect by foliage application, Wagner pot (Table 18, symbol D); assay type: in vivo, chinese sprangletop (Leptochloa chinensis); details: 272 g/ha
Summary of the method: (§3)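 Plants were sown in alluvial soil held under 0.1–0.5 cm standing water and grown 14 days in a greenhouse at 25–30 °C. An emulsifiable formulation, water-diluted to the set dose, was then sprayed onto the foliage, and effects were scored three weeks later using previously defined criteria.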

[9] = system: rice flat sedge; test: Test Example 3: herbicidal effect by foliage application, Wagner pot (Table 18, symbol E); assay type: in vivo, rice flat sedge (Cyperus iria); details: 272 g/ha
Summary of the method: as §3

[10] = system: green foxtail; test: Test Example 4: herbicidal effect by soil treatment (Table 19, symbol G); assay type: in vivo, green foxtail (Setaria viridis); details: amount of applied herbicide 272 g/ha
Summary of the method: as §2

[11] = system: persian speedwell; test: Test Example 5: herbicidal effect by foliage application, plastic box (Table 20, symbol R); assay type: in vivo, Persian speedwell (Veronica persica); details: amount of applied herbicide 272 g/ha; foliage application after 14-day growth; evaluated three weeks after application
Summary of the method: as §1

[12] = system: windgrass; test: Test Example 4: herbicidal effect by soil treatment (Table 19, symbol L); assay type: in vivo, windgrass (Apera spica-venti); details: amount of applied herbicide 272 g/ha
Summary of the method: as §2

[13] = system: green foxtail; test: Test Example 5: herbicidal effect by foliage application, plastic box (Table 20, symbol G); assay type: in vivo, green foxtail (Setaria viridis); details: amount of applied herbicide 272 g/ha; foliage application after 14-day growth; evaluated three weeks after application
Summary of the method: as §1

[14] = system: velvetleaf; test: Test Example 5: herbicidal effect by foliage application, plastic box (Table 20, symbol M); assay type: in vivo, velvetleaf (Abutilon theophrasti); details: amount of applied herbicide 272 g/ha; foliage application after 14-day growth; evaluated three weeks after application
Summary of the method: as §1

[15] = system: velvetleaf; test: Test Example 4: herbicidal effect by soil treatment (Table 19, symbol M); assay type: in vivo, velvetleaf (Abutilon theophrasti); details: amount of applied herbicide 272 g/ha
Summary of the method: as §2

[16] = system: chickweed; test: Test Example 4: herbicidal effect by soil treatment (Table 19, symbol P); assay type: in vivo, common chickweed (Stellaria media); details: amount of applied herbicide 272 g/ha
Summary of the method: as §2

[17] = system: persian speedwell; test: Test Example 4: herbicidal effect by soil treatment (Table 19, symbol R); assay type: in vivo, Persian speedwell (Veronica persica); details: amount of applied herbicide 272 g/ha
Summary of the method: as §2

[18] = system: southern crabgrass; test: Test Example 4: herbicidal effect by soil treatment (Table 19, symbol F); assay type: in vivo, southern crabgrass (Digitaria ciliaris); details: amount of applied herbicide 272 g/ha
Summary of the method: as §2

[19] = system: redroot pigweed; test: Test Example 4: herbicidal effect by soil treatment (Table 19, symbol N); assay type: in vivo, redroot pigweed (Amaranthus retroflexus); details: amount of applied herbicide 272 g/ha
Summary of the method: as §2

[20] = system: barnyard grass; test: Test Example 3: herbicidal effect by foliage application, Wagner pot (Table 18, symbol H); assay type: in vivo, barnyard grass (Echinochloa crus-galli); details: 272 g/ha
Summary of the method: as §3

[21] = system: wild oat; test: Test Example 5: herbicidal effect by foliage application, plastic box (Table 20, symbol I); assay type: in vivo, wild oat (Avena fatua); details: amount of applied herbicide 272 g/ha; foliage application after 14-day growth; evaluated three weeks after application
Summary of the method: as §1

[22] = system: lambsquarters; test: Test Example 4: herbicidal effect by soil treatment (Table 19, symbol O); assay type: in vivo, lambsquarters (Chenopodium album); details: amount of applied herbicide 272 g/ha
Summary of the method: as §2

[23] = system: Italian ryegrass; test: Test Example 5: herbicidal effect by foliage application, plastic box (Table 20, symbol K); assay type: in vivo, Italian ryegrass (Lolium multiflorum); details: amount of applied herbicide 272 g/ha; foliage application after 14-day growth; evaluated three weeks after application
Summary of the method: as §1

[24] = system: redroot pigweed; test: Test Example 5: herbicidal effect by foliage application, plastic box (Table 20, symbol N); assay type: in vivo, redroot pigweed (Amaranthus retroflexus); details: amount of applied herbicide 272 g/ha; foliage application after 14-day growth; evaluated three weeks after application
Summary of the method: as §1

[25] = system: chickweed; test: Test Example 5: herbicidal effect by foliage application, plastic box (Table 20, symbol P); assay type: in vivo, common chickweed (Stellaria media); details: amount of applied herbicide 272 g/ha; foliage application after 14-day growth; evaluated three weeks after application
Summary of the method: as §1

## CCCC(=O)Oc1c(C)nn(C)c(=O)c1-c1c(-c2ccccc2OC(F)F)sc2cc(F)c(F)cc12 [5-022]
[1]
  Herbicidal effect by foliage application, H: barnyard grass: 3 (Herbicidal rate of 40% or more and less than 70%)
[2]
  K: Italian ryegrass, herbicidal effect grade: 0 (Herbicidal rate of 5% or less (almost no effect))
[3]
  Herbicidal effect by foliage application, J: blackgrass: 1 (Herbicidal rate of 5% or more and less than 20%)
[4]
  I: wild oat, herbicidal effect grade: 0 (Herbicidal rate of 5% or less (almost no effect))
[5]
  J: blackgrass, herbicidal effect grade: 0 (Herbicidal rate of 5% or less (almost no effect))
[6]
  Herbicidal effect by foliage application, F: southern crabgrass: 4 (Herbicidal rate of 70% or more and less than 90%)
[7]
  H: barnyard grass, herbicidal effect grade: 0 (Herbicidal rate of 5% or less (almost no effect))
[8]
  herbicidal effect on Chinese sprangletop (D): 3 (Herbicidal rate of 40% or more and less than 70%)
[9]
  herbicidal effect on rice flat sedge (E): 3 (Herbicidal rate of 40% or more and less than 70%)
[10]
  G: green foxtail, herbicidal effect grade: 3 (Herbicidal rate of 40% or more and less than 70%)
[11]
  Herbicidal effect by foliage application, R: persian speedwell: 4 (Herbicidal rate of 70% or more and less than 90%)
[12]
  L: windgrass, herbicidal effect grade: 0 (Herbicidal rate of 5% or less (almost no effect))
[13]
  Herbicidal effect by foliage application, G: green foxtail: 5 (Herbicidal rate of 90% or more (almost completely withered))
[14]
  Herbicidal effect by foliage application, M: velvetleaf: 5 (Herbicidal rate of 90% or more (almost completely withered))
[15]
  M: velvetleaf, herbicidal effect grade: 3 (Herbicidal rate of 40% or more and less than 70%)
[16]
  P: chickweed, herbicidal effect grade: 3 (Herbicidal rate of 40% or more and less than 70%)
[17]
  R: persian speedwell, herbicidal effect grade: 3 (Herbicidal rate of 40% or more and less than 70%)
[18]
  F: southern crabgrass, herbicidal effect grade: 1 (Herbicidal rate of 5% or more and less than 20%)
[19]
  N: redroot pigweed, herbicidal effect grade: 4 (Herbicidal rate of 70% or more and less than 90%)
[20]
  herbicidal effect on barnyard grass (H): 4 (Herbicidal rate of 70% or more and less than 90%)
[21]
  Herbicidal effect by foliage application, I: wild oat: 0 (Herbicidal rate of 5% or less (almost no effect))
[22]
  O: lambsquarters, herbicidal effect grade: 3 (Herbicidal rate of 40% or more and less than 70%)
[23]
  Herbicidal effect by foliage application, K: Italian ryegrass: 0 (Herbicidal rate of 5% or less (almost no effect))
[24]
  Herbicidal effect by foliage application, N: redroot pigweed: 5 (Herbicidal rate of 90% or more (almost completely withered))
[25]
  Herbicidal effect by foliage application, P: chickweed: 5 (Herbicidal rate of 90% or more (almost completely withered))
